Columns and labels:
MDA-MB-231 [1] = assay: drug sensitivity score (DSS), cytotoxicity CellTox Green; higher = more cytotoxic; extreme values may be limits of the assay; conditions: 72 h
MDA-MB-231 [2] = assay: drug sensitivity score (DSS), cell viability CellTiter-Glo; higher = more sensitive; extreme values may be limits of the assay; conditions: 72 h
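For drug sensitivity score (DSS), cytotoxicity CellTox Green in this document: DSS summarises each dose–response curve by combining IC50, EC50, maximal inhibition and efficacy across drug concentrations.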

| SMILES | drug sensitivity score (MDA-MB-231 [1]; shRNA: shPPFIA1_1) [DSS] | drug sensitivity score (MDA-MB-231 [1]; shRNA: shScramble) [DSS] | drug sensitivity score (MDA-MB-231 [2]; shRNA: shPPFIA1_1) [DSS] | drug sensitivity score (MDA-MB-231 [2]; shRNA: shScramble) [DSS] |
| --- | --- | --- | --- | --- |
| COc1cc(Nc2ncc3c(n2)-c2ccc(Cl)cc2C(c2c(F)cccc2OC)=NC3)ccc1C(=O)O [Alisertib] | 0.7 | 0 | 0.8 | 0.1 |
| Oc1ncnc2[nH]ncc12 [Allopurinol] | 0 | 0 | 0 | 0 |
| Cc1nc(NC(=O)N2CCC[C@H]2C(N)=O)sc1-c1ccnc(C(C)(C)C(F)(F)F)c1 [Alpelisib] | 0 | 0 | 1.5 | 0 |
| CN(C)c1nc(N(C)C)nc(N(C)C)n1 [Altretamine] | 0 | 0 | 0 | 0 |
| CO[C@H]1/C=C\C=C(/C)C(=O)NC2=CC(=O)C(NCCN(C)C)=C(C[C@@H](C)C[C@H](OC)[C@H](O)[C@@H](C)/C=C(\C)[C@@H]1OC(N)=O)C2=O [Alvespimycin] | 0 | 0.6 | 4.8 | 7.2 |
| CN1CC[C@H](c2c(O)cc(O)c3c(=O)cc(-c4ccccc4Cl)oc23)[C@H](O)C1 [Alvocidib] | 11.9 | 7.4 | 10.6 | 15.2 |
| CCC1(c2ccc(N)cc2)CCC(=O)NC1=O (stereo not drawn) [Aminoglutethimide] | 0 | 0 | 0 | 0 |
| CN(C)CCN1C(=O)c2cccc3cc(N)cc(c23)C1=O [Amonafide] | 1 | 2.5 | 3.5 | 8.2 |
| COc1cc(NS(C)(=O)=O)ccc1Nc1c2ccccc2nc2ccccc12 [Amsacrine] | 2 | 7.4 | 4.8 | 8.6 |
| S=C(NCc1ccc2c(c1)OCO2)N1CCN(c2ncnc3c2oc2ccccc23)CC1 [Amuvatinib] | 5.5 | 0 | 0.6 | 1.8 |
| O=C1CN2Cc3c(ccc(Cl)c3Cl)N=C2N1 [Anagrelide] | 0 | 0 | 0 | 0 |
| CC(C)(C#N)c1cc(Cn2cncn2)cc(C(C)(C)C#N)c1 [Anastrozole] | 0 | 0 | 0 | 0 |
| N#CC1(c2ccc(NC(=O)c3cccnc3NCc3ccncc3)cc2)CCCC1 [Apatinib] | 0 | 0 | 0 | 0 |
| Cc1c(CN2CCN(C(=O)[C@H](C)O)CC2)sc2c(N3CCOCC3)nc(-c3cnc(N)nc3)nc12 [Apitolisib] | 0 | 0 | 0 | 5.6 |
| CC(C)c1c(C(=O)Nc2ccccc2)c(-c2ccccc2)c(-c2ccc(F)cc2)n1CC[C@@H](O)C[C@@H](O)CC(=O)O [Atorvastatin] | 2 | 0.6 | 2.5 | 7.3 |
| CC(=O)OC[C@H]1O[C@@H]([S-])[C@H](OC(C)=O)[C@@H](OC(C)=O)[C@@H]1OC(C)=O.CCP(CC)CC.[Au+] [Auranofin] | 0 | 0.4 | 3.2 | 4.2 |
| CNC(=O)c1ccccc1Sc1ccc2c(/C=C/c3ccccn3)n[nH]c2c1 [Axitinib] | 0 | 0 | 0 | 0.2 |
| Nc1ncn([C@@H]2O[C@H](CO)[C@@H](O)[C@H]2O)c(=O)n1 [Azacitidine] | 0 | 0 | 0 | 1.1 |
| Cc1cc(-c2nc(-c3ccc(OC(F)(F)F)cc3)no2)nn1Cc1ccnc(N2CCN(C3CC3)CC2)c1 [BAY 87-2243] | 0 | 0 | 14.7 | 13 |
| Nc1nc(Nc2ccc3c(c2)CC[C@@H](N2CCCC2)CC3)nn1-c1cc2c(nn1)-c1ccccc1CCC2 [BGB324] | 4.4 | 6.1 | 10.6 | 9.5 |
| CC[C@@H]1C(=O)N(C)c2cnc(Nc3ccc(C(=O)NC4CCN(C)CC4)cc3OC)nc2N1C1CCCC1 [BI 2536] | 0.3 | 0 | 0 | 11.3 |

| SMILES | drug sensitivity score (MDA-MB-231 [1]; shRNA: shPPFIA1_1) [DSS] | drug sensitivity score (MDA-MB-231 [1]; shRNA: shScramble) [DSS] | drug sensitivity score (MDA-MB-231 [2]; shRNA: shPPFIA1_1) [DSS] | drug sensitivity score (MDA-MB-231 [2]; shRNA: shScramble) [DSS] |
| --- | --- | --- | --- | --- |
| COc1c(C)cnc(Cn2cnc3c(Cl)nc(N)nc32)c1C [BIIB021] | 3.1 | 2.8 | 10.8 | 15.9 |
| O=C(Nc1cccc(Nc2ncc(Br)c(NCCc3cnc[nH]3)n2)c1)N1CCCC1 [BX-912] | 1.8 | 3.1 | 3.5 | 5.7 |
| Cc1ccc(NC(=O)c2ccc(CN3CC[C@H](N(C)C)C3)c(C(F)(F)F)c2)cc1Nc1nccc(-c2cncnc2)n1 [Bafetinib] | 0.6 | 0.5 | 0 | 4.3 |
| CCS(=O)(=O)N1CC(CC#N)(n2cc(-c3ncnc4[nH]ccc34)cn2)C1 [Baricitinib] | 0 | 0 | 0.9 | 0.9 |
| O=C(/C=C/c1cccc(S(=O)(=O)Nc2ccccc2)c1)NO [Belinostat] | 14.9 | 8.1 | 8.7 | 10.2 |
| Cn1c(CCCC(=O)O)nc2cc(N(CCCl)CCCl)ccc21 [Bendamustine] | 0 | 0 | 0 | 0 |
| N#CC(c1ccnc(OCc2ccc(CN3CCOCC3)cc2)n1)c1nc2ccccc2s1 (stereo not drawn) [Bentamapimod] | 0 | 0 | 1.6 | 3.7 |
| C=C(c1ccc(C(=O)O)cc1)c1cc2c(cc1C)C(C)(C)CCC2(C)C [Bexarotene] | 0 | 0 | 0 | 0 |
| CC(O)(CS(=O)(=O)c1ccc(F)cc1)C(=O)Nc1ccc(C#N)c(C(F)(F)F)c1 (stereo not drawn) [Bicalutamide] | 0 | 0 | 0 | 0.2 |
| CCNC(=O)CCC/C=C\C[C@@H]1[C@@H](/C=C/[C@@H](O)CCc2ccccc2)[C@H](O)C[C@@H]1O [Bimatoprost] | 0 | 0 | 0 | 0 |
| Cn1cnc2c(F)c(Nc3ccc(Br)cc3F)c(C(=O)NOCCO)cc21 [Binimetinib] | 0 | 2.2 | 0 | 2.7 |
| CC[C@H](NC(=O)[C@H](C)NC)C(=O)N1C[C@@H](O)C[C@H]1Cc1c(-c2[nH]c3cc(F)ccc3c2C[C@@H]2C[C@H](O)CN2C(=O)[C@H](CC)NC(=O)[C@H](C)NC)[nH]c2cc(F)ccc12 [Birinapant] | 31.3 | 22.4 | 20.3 | 13.2 |
| Cc1c(N)nc([C@H](CC(N)=O)NC[C@H](N)C(N)=O)nc1C(=O)N[C@H](C(=O)N[C@H](C)[C@@H](O)[C@H](C)C(=O)N[C@H](C(=O)NCCc1nc(-c2nc(C(=O)NCCC[S+](C)C)cs2)cs1)[C@@H](C)O)[C@@H](OC1OC(CO)C(O)C(O)C1OC1OC(CO)C(O)C(OC(N)=O)C1O)c1cnc[nH]1 (stereo partly drawn) [Bleomycin] | 0.1 | 0 | 0 | 3.5 |
| CC(C)C[C@H](NC(=O)[C@H](Cc1ccccc1)NC(=O)c1cnccn1)B(O)O [Bortezomib] | 26.8 | 24.3 | 21.3 | 23.1 |
| COc1cc(Nc2c(C#N)cnc3cc(OCCCN4CCN(C)CC4)c(OC)cc23)c(Cl)cc1Cl [Bosutinib] | 6.2 | 6.3 | 6.3 | 9.3 |
| COc1cc(N2CCC(N3CCN(C)CC3)CC2)ccc1Nc1ncc(Cl)c(Nc2ccccc2P(C)(C)=O)n1 [Brigatinib] | 1.8 | 3.6 | 6.4 | 0.7 |
| Cc1cc2c(F)c(Oc3ncnn4cc(OC[C@@H](C)O)c(C)c34)ccc2[nH]1 [Brivanib] | 0 | 0 | 0 | 0 |
| CCC/C=C/C=C/C(=O)O[C@H]1/C(=C/C(=O)OC)C[C@H]2C[C@H]([C@@H](C)O)OC(=O)C[C@H](O)C[C@@H]3C[C@H](OC(C)=O)C(C)(C)[C@](O)(C[C@@H]4C/C(=C/C(=O)OC)C[C@H](/C=C/C(C)(C)[C@]1(O)O2)O4)O3 [Bryostatin 1] | 0 | 0 | 17.2 | 3.3 |
| Nc1cc(C(F)(F)F)c(-c2cc(N3CCOCC3)nc(N3CCOCC3)n2)cn1 [Buparlisib] | 1.4 | 0 | 0.9 | 6.2 |
| CS(=O)(=O)OCCCCOS(C)(=O)=O [Busulfan] | 0 | 0 | 0 | 0.2 |
| O=C(O)CCCCC(CCSCc1ccccc1)SCc1ccccc1 (stereo not drawn) [CPI-613] | 0 | 0 | 0 | 0 |

| SMILES | drug sensitivity score (MDA-MB-231 [1]; shRNA: shPPFIA1_1) [DSS] | drug sensitivity score (MDA-MB-231 [1]; shRNA: shScramble) [DSS] | drug sensitivity score (MDA-MB-231 [2]; shRNA: shPPFIA1_1) [DSS] | drug sensitivity score (MDA-MB-231 [2]; shRNA: shScramble) [DSS] |
| --- | --- | --- | --- | --- |
| C#Cc1cccc(Nc2ncnc3cc(OC)c(OCCCCCCC(=O)NO)cc23)c1 [CUDC-101] | 10.2 | 7.4 | 6.2 | 9.8 |
| CN(C)c1cc2c(cc1Sc1nc3c(N)nccc3n1CCNCC(C)(C)C)OCO2 [CUDC-305] | 3.4 | 3.4 | 8.7 | 13.6 |
| COc1ccc(-c2nc(N3CCOCC3)c3sc(CN(C)c4ncc(C(=O)NO)cn4)cc3n2)cn1 [CUDC-907] | 23.5 | 24.5 | 24 | 28 |
| Cc1nc(N)sc1-c1ccnc(Nc2ccc(N3CCOCC3)cc2)n1 [CYC-116] | 0 | 0 | 0.2 | 4.8 |
| CO[C@H]1C(=O)[C@]2(C)[C@@H](OC)C[C@H]3OC[C@@]3(OC(C)=O)[C@H]2[C@H](OC(=O)c2ccccc2)[C@]2(O)C[C@H](OC(=O)[C@H](O)[C@@H](NC(=O)OC(C)(C)C)c3ccccc3)C(C)=C1C2(C)C [Cabazitaxel] | 0 | 9.7 | 16.4 | 11.5 |
| COc1cc2nccc(Oc3ccc(NC(=O)C4(C(=O)Nc5ccc(F)cc5)CC4)cc3)c2cc1OC [Cabozantinib] | 0 | 0 | 3.2 | 1.1 |
| CC[C@@]1(O)C(=O)OCc2c1cc1n(c2=O)Cc2cc3ccccc3nc2-1 [Camptothecin] | 2 | 0.7 | 0.8 | 10.4 |
| C=CC(=O)Nc1cc2c(Nc3ccc(F)c(Cl)c3)ncnc2cc1OCCCN1CCOCC1 [Canertinib] | 3 | 7.7 | 2.8 | 4.3 |
| CCCCCOC(=O)Nc1nc(=O)n([C@@H]2O[C@H](C)[C@@H](O)[C@H]2O)cc1F [Capecitabine] | 0 | 0 | 0 | 0 |
| O=C(O)C1(C(=O)O)CCC1.[NH2-].[NH2-].[Pt+2] [Carboplatin] | 0 | 0 | 0 | 0 |
| CC(C)C[C@H](NC(=O)[C@H](CCc1ccccc1)NC(=O)CN1CCOCC1)C(=O)N[C@@H](Cc1ccccc1)C(=O)N[C@@H](CC(C)C)C(=O)[C@@]1(C)CO1 [Carfilzomib] | 21.9 | 22.1 | 16.5 | 21.4 |
| O=NN(CCCl)C(=O)NCCCl [Carmustine] | 0 | 0 | 0 | 0 |
| COc1cc2c(Oc3ccc4[nH]c(C)cc4c3F)ncnc2cc1OCCCN1CCCC1 [Cediranib] | 0 | 0 | 7 | 7.5 |
| Cc1ccc(-c2cc(C(F)(F)F)nn2-c2ccc(S(N)(=O)=O)cc2)cc1 [Celecoxib] | 0 | 0 | 0 | 0 |
| CCS(=O)(=O)N1CCN(c2ccc(Nc3ncc(C(N)=O)c(NC4CC4)n3)cc2)CC1 [Cerdulatinib] | 0 | 0 | 0 | 2.9 |
| Cc1cc(Nc2ncc(Cl)c(Nc3ccccc3S(=O)(=O)C(C)C)n2)c(OC(C)C)cc1C1CCNCC1 [Ceritinib] | 0.9 | 0 | 0 | 1.2 |
| O=C(O)CCCc1ccc(N(CCCl)CCCl)cc1 [Chlorambucil] | 0 | 0 | 0 | 0 |
| CCN(CC)CCCC(C)Nc1ccnc2cc(Cl)ccc12 (stereo not drawn) [Chloroquine] | 5.2 | 7.2 | 8.7 | 9.4 |
| CC(C)[C@H]1C(=O)N[C@@H](CCCNC(=N)N)C(=O)NCC(=O)N[C@@H](CC(=O)O)C(=O)N[C@H](Cc2ccccc2)C(=O)N1C [Cilengitide] | 0 | 0 | 0 | 0 |
| N.N.[Cl][Pt][Cl] [Cisplatin] | 4 | 3.5 | 2 | 7.6 |

From the supplement of paper PMC10920090
